This note sets out measurements from ChEMBL document CHEMBL1201862, “PubChem BioAssay data set” (2004).

Calls of active or inactive are those of the source. Bounds are passed on as bounds.

Test [1] addresses ADP-ribosylation factor GTPase-activating protein 1 (Rattus norvegicus, UniProt Q62848). As to the kind of experiment: Fluorescence polarization-based biochemical high throughput dose response screening assay to identify inhibitors of ADP-ribosylation factor GTPase activating protein 1 (ARFGAP1). The format is functional.
Test [2] addresses Botulinum neurotoxin type F (Clostridium botulinum, UniProt P30996). Briefly: High-throughput multiplex microsphere dose response for inhibitors of toxin protease, specifically Botulinum neurotoxin light chain F protease, compounds from Cherry Pick 02. The format is functional. To be noted: read-out: EC50_MICROM.
The target of test [3] is DNA dC->dU-editing enzyme APOBEC-3G (Homo sapiens, UniProt Q9HC16). The format is functional.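 Also: Dose-response counterscreen measuring inhibition of APOBEC3G DNA deaminase activity, run while confirming APOBEC3A inhibitors.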
Sequence of DNA dC->dU-editing enzyme APOBEC-3G (Q9HC16 whole entry): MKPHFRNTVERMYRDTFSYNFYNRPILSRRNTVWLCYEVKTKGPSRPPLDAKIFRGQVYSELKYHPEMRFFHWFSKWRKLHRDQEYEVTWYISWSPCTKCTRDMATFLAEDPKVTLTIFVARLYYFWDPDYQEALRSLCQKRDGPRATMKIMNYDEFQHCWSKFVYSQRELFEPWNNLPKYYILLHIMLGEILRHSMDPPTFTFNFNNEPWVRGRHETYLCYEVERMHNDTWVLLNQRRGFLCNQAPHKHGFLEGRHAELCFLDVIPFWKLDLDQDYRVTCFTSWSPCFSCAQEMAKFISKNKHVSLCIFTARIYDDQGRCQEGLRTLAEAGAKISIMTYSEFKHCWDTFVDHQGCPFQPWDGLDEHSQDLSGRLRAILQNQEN
Test [4] addresses T1, DNA repair and recombination protein RAD54-like (Homo sapiens, UniProt Q92698).
T1 sequence (Q92698 whole entry): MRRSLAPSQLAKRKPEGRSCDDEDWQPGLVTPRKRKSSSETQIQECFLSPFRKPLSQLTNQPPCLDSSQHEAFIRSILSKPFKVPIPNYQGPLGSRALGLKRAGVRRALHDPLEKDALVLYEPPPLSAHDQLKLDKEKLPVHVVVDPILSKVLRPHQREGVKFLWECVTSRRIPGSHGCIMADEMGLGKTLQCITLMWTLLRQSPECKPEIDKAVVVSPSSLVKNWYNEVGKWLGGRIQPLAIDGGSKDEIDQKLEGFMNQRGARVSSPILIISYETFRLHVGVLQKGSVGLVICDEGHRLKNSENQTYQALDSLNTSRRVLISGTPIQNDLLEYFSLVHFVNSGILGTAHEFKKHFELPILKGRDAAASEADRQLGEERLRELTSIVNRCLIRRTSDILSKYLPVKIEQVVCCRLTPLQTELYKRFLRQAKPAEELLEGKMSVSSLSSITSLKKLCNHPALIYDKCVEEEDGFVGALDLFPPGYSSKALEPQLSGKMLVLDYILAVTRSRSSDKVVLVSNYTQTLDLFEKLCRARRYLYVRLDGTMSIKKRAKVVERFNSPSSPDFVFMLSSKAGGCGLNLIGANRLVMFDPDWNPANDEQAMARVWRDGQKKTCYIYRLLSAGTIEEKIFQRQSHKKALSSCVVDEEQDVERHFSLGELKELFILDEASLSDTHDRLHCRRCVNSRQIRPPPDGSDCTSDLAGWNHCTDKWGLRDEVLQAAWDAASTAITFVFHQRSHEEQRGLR
As to the kind of experiment: inhibitors of human RAD54 branch migration, confirmation, biochemical, fluorescence, cherry-picked samples, dose series (AID 651657). The format is functional.

The target of test [5] is DNA dC->dU-editing enzyme APOBEC-3A (Homo sapiens, UniProt P31941). Briefly: Dose Response confirmation of small molecule APOBEC3A DNA Deaminase Inhibitors via a fluorescence-based single-stranded DNA deaminase assay. [Related pubchem assays (depositor defined):AID493011, AID493024]. The format is functional.
Sequence of DNA dC->dU-editing enzyme APOBEC-3A (P31941 whole entry): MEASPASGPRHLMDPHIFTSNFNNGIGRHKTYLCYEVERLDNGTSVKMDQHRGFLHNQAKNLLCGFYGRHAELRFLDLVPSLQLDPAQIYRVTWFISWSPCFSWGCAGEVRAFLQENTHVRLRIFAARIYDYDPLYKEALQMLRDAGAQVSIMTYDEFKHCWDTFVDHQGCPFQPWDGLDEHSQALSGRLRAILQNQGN
Test [6] deals with T2, DNA repair protein RAD52 homolog (Homo sapiens, UniProt P43351).
T2 sequence (P43351 whole entry): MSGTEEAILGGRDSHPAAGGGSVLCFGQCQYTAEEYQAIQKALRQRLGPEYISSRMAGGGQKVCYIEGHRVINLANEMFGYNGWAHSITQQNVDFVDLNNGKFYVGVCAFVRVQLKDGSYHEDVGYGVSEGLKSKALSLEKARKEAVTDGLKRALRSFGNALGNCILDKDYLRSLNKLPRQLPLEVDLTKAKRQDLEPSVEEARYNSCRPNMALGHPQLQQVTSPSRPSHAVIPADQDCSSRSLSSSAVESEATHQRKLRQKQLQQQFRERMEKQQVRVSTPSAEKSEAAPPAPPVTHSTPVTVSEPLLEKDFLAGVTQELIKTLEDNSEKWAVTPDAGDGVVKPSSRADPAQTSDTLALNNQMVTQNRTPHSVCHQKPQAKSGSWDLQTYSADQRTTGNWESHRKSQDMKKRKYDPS
The format is functional, biochemical.

Test [7] is described as follows: MDA-MB-231 cell growth inhibition, dose response, cytotoxicity control for RAD54 inhibitor project, CellTiter-Glo luminescence, cherry-pick (AID 651692). The format is functional, cell-based.
Test [8] has as its target Induced myeloid leukemia cell differentiation protein Mcl-1 (Homo sapiens, UniProt Q07820). The format is functional.
In test [9] the target is T3, Replicative DNA helicase DnaB (Mycobacterium tuberculosis, UniProt P9WMR3).
T3 sequence (P9WMR3 whole entry): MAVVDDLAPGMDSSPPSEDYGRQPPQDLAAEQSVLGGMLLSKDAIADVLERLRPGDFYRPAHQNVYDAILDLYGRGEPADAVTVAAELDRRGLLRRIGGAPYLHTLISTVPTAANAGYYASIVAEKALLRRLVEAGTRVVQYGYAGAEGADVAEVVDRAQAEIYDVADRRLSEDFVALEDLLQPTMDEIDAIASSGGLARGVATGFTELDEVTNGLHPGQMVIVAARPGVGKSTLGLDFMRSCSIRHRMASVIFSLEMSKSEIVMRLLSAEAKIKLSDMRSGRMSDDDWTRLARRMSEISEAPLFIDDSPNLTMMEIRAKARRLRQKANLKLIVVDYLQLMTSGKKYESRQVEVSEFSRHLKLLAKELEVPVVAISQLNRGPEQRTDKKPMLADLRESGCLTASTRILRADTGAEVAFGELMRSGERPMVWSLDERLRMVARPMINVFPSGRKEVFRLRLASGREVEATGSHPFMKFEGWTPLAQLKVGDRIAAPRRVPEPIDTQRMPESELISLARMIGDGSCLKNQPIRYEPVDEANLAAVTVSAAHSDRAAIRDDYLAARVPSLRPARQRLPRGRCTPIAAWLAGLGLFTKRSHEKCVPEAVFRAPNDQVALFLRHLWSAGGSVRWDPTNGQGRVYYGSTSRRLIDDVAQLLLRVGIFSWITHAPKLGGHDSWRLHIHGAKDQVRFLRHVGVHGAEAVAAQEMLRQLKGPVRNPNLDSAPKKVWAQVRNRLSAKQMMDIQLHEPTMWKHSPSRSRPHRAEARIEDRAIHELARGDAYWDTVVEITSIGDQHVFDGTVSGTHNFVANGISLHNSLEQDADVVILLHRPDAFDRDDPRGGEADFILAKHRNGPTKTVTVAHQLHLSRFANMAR
Briefly: DnaB intein splicing inhibitors, dose response, biochemical, cell-free fluorescence (AID 449749). The format is functional.

Test [10] has as its target T4, Small ubiquitin-related modifier 2 (Homo sapiens, UniProt P61956). Briefly: inhibitors of SUMO2 protein-protein interaction, dose response, selectivity assay for SUMO1 interaction inhibitor project, biochemical, FRET, human SUMO2, uHTS hits (AID 624384). The conditions noted are these: read-out: IC50_Mean. The format is functional.
In test [11] the target is T5, Small ubiquitin-related modifier 1 (Homo sapiens, UniProt P63165). Briefly: inhibitors of SUMO1 peptide binding, dose response, biochemical, fluorescence polarization, uHTS hits (AID 624382). The conditions noted are these: read-out: IC50_Mean. The format is functional. On the technique in general: In fluorescence polarisation assays a small probe gives low polarisation when free and higher when bound to something large.
T5 sequence (P63165 whole entry): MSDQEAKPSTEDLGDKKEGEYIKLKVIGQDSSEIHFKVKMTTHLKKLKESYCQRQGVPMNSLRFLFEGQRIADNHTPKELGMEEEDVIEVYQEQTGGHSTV

Test [12] has as its target T4, Small ubiquitin-related modifier 2. Briefly: SUMO2–SIM peptide binding inhibitors, dose response, selectivity assay for SUMO1 interaction inhibitor project, biochemical, fluorescence polarization, uHTS hits (AID 624385). The format is functional. The conditions noted are these: read-out: IC50_Mean.
For test [13], the target named is T5, Small ubiquitin-related modifier 1. As to the kind of experiment: inhibitors of SUMO1 partner interactions, dose response, biochemical, FRET (AID 624383). The format is functional. To be noted: read-out: IC50_Mean.
For test [14], the target named is T6, Protein RecA (Mycobacterium tuberculosis, UniProt P9WHJ3).
T6 sequence (P9WHJ3 whole entry): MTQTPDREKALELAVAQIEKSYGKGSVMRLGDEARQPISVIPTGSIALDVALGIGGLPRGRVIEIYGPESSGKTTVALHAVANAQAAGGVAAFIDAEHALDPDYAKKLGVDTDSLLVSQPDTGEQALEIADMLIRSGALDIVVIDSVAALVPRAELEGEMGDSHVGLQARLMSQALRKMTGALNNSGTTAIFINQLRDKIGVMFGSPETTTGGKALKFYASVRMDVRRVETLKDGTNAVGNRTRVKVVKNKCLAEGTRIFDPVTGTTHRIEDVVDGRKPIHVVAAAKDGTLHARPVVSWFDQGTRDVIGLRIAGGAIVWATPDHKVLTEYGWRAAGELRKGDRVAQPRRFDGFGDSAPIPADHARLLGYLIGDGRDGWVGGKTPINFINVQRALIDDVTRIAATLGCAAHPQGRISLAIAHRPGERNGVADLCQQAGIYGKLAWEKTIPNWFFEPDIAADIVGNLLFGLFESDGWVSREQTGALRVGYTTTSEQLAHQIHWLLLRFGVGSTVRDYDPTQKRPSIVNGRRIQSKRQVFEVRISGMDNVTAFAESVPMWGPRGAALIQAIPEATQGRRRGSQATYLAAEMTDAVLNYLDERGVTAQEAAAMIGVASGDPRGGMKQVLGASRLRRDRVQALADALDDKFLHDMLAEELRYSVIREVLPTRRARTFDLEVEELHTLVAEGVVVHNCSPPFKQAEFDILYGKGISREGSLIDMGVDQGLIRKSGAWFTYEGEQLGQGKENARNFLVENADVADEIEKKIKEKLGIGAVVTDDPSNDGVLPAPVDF
Briefly: Fluorescence Cell-Free Homogeneous Dose Retest to Identify Inhibitors of RecA-Intein Splicing Activity. [Related pubchem assays (depositor defined):AID2097, AID2223, AID489010, AID492950]. The format is functional.

Test [15] concerns the target T7, Beta-2 adrenergic receptor (Homo sapiens, UniProt P07550). Briefly: beta2AR agonists driving receptor internalization, dose response, cell-based, FAP fluorogen, flow cytometry, cherry pick 1 (AID 588763). The format is functional. Background: A flow cytometer gives signals particle by particle.
Test [16] has as its target T7, Beta-2 adrenergic receptor. As to the kind of experiment: Dose response for HTS for Beta-2AR agonists via FAP method from Powderset3. The format is functional.

T7 sequence (P07550 whole entry): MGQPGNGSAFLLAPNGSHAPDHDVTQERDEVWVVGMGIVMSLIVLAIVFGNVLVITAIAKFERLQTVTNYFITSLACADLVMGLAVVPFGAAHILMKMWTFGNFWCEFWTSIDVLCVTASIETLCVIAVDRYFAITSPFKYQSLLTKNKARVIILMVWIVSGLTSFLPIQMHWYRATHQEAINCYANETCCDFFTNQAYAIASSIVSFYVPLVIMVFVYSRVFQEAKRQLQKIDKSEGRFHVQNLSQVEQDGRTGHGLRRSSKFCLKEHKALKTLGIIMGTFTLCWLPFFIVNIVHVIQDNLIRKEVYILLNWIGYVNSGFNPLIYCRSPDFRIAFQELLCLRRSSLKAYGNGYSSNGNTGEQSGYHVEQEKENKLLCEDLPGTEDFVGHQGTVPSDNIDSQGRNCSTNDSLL
T4 sequence (P61956 whole entry): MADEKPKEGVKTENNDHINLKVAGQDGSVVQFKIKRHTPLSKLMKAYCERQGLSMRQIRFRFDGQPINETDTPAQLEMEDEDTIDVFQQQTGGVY
Sequence of ADP-ribosylation factor GTPase-activating protein 1 (Q62848 whole entry): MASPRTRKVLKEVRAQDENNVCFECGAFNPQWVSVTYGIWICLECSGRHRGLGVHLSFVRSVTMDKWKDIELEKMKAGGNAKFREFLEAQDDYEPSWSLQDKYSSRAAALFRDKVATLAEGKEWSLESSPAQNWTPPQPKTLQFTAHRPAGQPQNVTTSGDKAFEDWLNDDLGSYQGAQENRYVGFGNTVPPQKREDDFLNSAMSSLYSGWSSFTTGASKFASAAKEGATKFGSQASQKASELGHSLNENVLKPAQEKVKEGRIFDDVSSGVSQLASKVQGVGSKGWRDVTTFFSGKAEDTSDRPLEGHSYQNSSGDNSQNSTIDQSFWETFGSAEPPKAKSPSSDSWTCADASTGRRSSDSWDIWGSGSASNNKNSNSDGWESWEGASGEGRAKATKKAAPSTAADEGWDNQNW
Sequence of Induced myeloid leukemia cell differentiation protein Mcl-1 (Q07820 whole entry): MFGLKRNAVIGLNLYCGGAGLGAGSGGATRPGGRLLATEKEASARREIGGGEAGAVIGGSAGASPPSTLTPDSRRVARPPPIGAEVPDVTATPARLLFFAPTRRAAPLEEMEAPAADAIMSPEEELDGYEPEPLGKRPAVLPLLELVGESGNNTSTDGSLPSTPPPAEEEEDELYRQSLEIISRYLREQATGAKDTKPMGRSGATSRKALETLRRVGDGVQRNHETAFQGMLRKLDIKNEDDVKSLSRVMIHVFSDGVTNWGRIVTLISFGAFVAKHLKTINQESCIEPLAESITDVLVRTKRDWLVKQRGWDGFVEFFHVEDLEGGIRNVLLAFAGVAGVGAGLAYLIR
Sequence of Botulinum neurotoxin type F (P30996 1-436 limits assumed): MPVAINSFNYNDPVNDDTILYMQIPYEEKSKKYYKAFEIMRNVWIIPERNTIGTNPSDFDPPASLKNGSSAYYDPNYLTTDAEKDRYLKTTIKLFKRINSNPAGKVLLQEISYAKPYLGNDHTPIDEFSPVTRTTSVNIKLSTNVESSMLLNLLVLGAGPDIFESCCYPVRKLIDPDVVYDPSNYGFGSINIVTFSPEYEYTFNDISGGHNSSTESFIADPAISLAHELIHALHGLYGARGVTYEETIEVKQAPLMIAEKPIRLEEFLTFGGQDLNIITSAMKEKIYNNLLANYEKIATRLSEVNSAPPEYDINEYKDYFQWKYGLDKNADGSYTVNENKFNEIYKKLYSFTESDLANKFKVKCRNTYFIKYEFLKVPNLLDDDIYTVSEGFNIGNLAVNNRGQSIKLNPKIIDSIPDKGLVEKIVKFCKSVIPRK

Regarding `CCN1CCN(C(=O)Cn2ncc3c4cc(C)ccc4nc-3c2O)CC1`, in test [1], the IC50 is 82.7 µM (inactive).

`COc1ccccc1Cc1c(-c2ccc(F)cc2)nc2cc(C)c(Br)c(C)n12`: the EC50 in [2] is > 20 µM (inactive).

As a reminder, the AC50 is the midpoint of the concentration-response curve, whichever way the signal moves. As for `CCN1CCN(c2ccc(NC(=O)c3cc4ccccc4cc3OC)cc2C)CC1`, the results for the IC50 in test [3] and in [5] were 6.67 µM (active) and 4.24 µM (active), respectively. Moreover, the AC50 is 52.2 µM (active) in [4], 18.2 µM (active) in test [6] and 36.5 µM (active) in test [7].

As for `NC1=C2C(=O)c3ccccc3C(=O)C2=C(N)CC1`, the IC50 is 1.8 µM (not active) in test [8]; > 66 µM (inactive) in [10]; 7.71 µM (active) in test [11]; 10.5 µM (active) in test [12]; 52.4 µM (inactive) in test [13]. For the same molecule, the AC50 in [9] is 11.3 µM (active). The EC50 in test [14] was 3.57 µM (active).

Turning to `CC1(C)Cc2c(c(N3CCCC3)nc3sc4c(N5CCN(CCO)CC5)ncnc4c23)CO1`, the results for the EC50 in test [15] and in test [16] were 8.76 µM (active) and 1.71 µM (active), respectively.
